Format in all cases: cell-based
What all share (settings): CreLuc reporter gene assay
For orientation: Reporter assays use an easily measured gene product as a stand-in for the process of interest.

The target of one test is T1, hGIPR (Homo sapiens, UniProt P48546).
T1 construct: expressed in transfected cells; host or cells: CHO cells carrying a CRE-luciferase reporter gene
T1 sequence (P48546 22-466): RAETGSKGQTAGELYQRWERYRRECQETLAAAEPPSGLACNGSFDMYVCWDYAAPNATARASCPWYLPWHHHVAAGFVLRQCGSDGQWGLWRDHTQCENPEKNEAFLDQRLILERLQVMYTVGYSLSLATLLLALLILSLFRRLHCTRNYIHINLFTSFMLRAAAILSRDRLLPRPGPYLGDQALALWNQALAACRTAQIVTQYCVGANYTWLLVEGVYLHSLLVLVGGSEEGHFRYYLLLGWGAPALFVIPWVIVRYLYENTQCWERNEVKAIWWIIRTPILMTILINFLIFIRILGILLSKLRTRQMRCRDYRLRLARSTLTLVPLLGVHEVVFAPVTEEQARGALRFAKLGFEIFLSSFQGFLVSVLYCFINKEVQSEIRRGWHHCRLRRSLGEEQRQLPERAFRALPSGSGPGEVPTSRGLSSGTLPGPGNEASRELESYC
The experiment in a line: hGIPR CreLuc reporter gene assay in 0.5% and 100% plasma. The essentials:
(§1)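 HEK-293 cells co-expressing GLP-1 or NPY2 receptor and CHO cells expressing GIP receptor, each carrying a CRE-driven luciferase reporter, were stimulated with peptides for 4 hours at 37 °C. Luminescence was read after Bright-Glo addition. EC50 came from 8-point, four-decade curves fitted by variable-slope non-linear regression.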

A further test concerns the target T2, hGLP1R (Homo sapiens, UniProt P43220).
T2 construct: expressed in transfected cells; host or cells: HEK-293 cells carrying a CRE-luciferase reporter gene
Briefly: hGLP1R CreLuc reporter gene assay in 0.5% and 100% plasma. Summed up: as §1

The next test concerns the target T3, hNPY2R (Homo sapiens, UniProt P49146).
T3 construct: expressed in transfected cells; host or cells: HEK-293 cells carrying a CRE-luciferase reporter gene
T3 sequence (P49146 1-381): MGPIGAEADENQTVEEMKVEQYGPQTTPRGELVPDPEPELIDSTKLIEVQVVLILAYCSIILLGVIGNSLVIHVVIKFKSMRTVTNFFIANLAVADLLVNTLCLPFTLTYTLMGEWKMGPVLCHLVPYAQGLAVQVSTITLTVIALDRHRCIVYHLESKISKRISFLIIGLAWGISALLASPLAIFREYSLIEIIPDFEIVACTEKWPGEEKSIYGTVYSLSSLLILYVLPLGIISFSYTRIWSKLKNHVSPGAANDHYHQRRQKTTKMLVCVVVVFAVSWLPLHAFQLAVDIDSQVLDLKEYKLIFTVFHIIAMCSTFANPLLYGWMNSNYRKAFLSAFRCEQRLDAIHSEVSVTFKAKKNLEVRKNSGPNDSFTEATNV
Briefly: hNPY2R CreLuc reporter gene assay in 0.5% and 100% plasma. Summed up: as §1

Where [1] appears, read: 0.5% human plasma, read-out: hGIPR 0.5% hP.
Setting [2] is: 100% human plasma, read-out: hGIPR 100% hP.
Setting [3] is: 0.5% human plasma, read-out: hGLP1R 0.5% hP.
The mark [4] stands for this setting: 0.5% human plasma, read-out: hNPY2R 0.5% hP.
Setting [5] is: 100% human plasma, read-out: hNPY2R 100% hP.

Where two headings read alike, the source gives them in different places. Starred links: 1 amine or outer side, 2 acyl side, 3 side chain; linkers in the order of their positions; H or OH if unused. Non-standard residues stand in square brackets, D forms with d. Groups on a side chain read outwards from the residue. *: point of attachment. C20 diacid = O=C(O)CCCCCCCCCCCCCCCCCCC(=O)*; C18 diacid = O=C(O)CCCCCCCCCCCCCCCCC(=O)*; γGlu = O=C(O)[C@H](CCC(=O)[*:2])N[*:1]; εLys = N[C@@H](CCCCN[*:1])C(=O)[*:2]; NMeR = CN[C@@H](CCCNC(=N)N)C(=O)O; AEEA = NCCOCCOCC(=O)O; Aib = CC(C)(N)C(=O)O

T2 sequence (P43220 24-463): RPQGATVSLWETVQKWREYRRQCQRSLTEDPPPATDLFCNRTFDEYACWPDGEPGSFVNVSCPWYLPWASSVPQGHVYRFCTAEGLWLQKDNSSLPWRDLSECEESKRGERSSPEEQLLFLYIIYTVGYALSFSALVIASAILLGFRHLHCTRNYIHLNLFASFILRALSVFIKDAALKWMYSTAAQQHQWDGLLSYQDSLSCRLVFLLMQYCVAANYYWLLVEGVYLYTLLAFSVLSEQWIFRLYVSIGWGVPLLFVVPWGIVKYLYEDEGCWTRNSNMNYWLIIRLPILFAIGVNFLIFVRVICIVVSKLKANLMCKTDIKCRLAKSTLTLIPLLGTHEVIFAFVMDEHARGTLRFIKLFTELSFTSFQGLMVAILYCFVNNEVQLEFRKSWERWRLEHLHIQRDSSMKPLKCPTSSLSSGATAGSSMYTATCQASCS

On to “H-Y[Aib]EGTFTSDYSI[Aib]LEKQAQ[Aib]AFVEWLIK([εLys-γGlu-γGlu-γGlu-γGlu-γGlu-γGlu-C20 diacid])GGPSSGASLRHY[Aib]NWLTRQRY-NH2 [Compound 184, Y-Aib-E-G-T-F-T-S-D-Y-S-I-Aib-L-E-K-Q-A-Q-Aib-A-F-V-E-W-L-I-K(1,3)-G-G-P-S-S-G-A-S-L-R-H-Y-Aib-N-W-L-T-R-Q-R-Y-NH2.C20DA-gGlu-gGlu-gGlu-gGlu-gGlu-gGlu-eLys(1,2)]”, for which the EC50 at hGIPR (setting [1]) amounted to 0.28 nM; on hGIPR (setting [2]), 1.37 nM; at hGLP1R (setting [3]), 0.18 nM; at hNPY2R (setting [4]), 46 nM.

Take “H-Y[Aib]EGTFTSDYSI[Aib]LEKQAE[Aib]AFVQWLIK([εLys-γGlu-γGlu-γGlu-γGlu-γGlu-γGlu-C18 diacid])GGPSSGASLRHYYNWLTRQRY-NH2 [Compound 51, Y-Aib-E-G-T-F-T-S-D-Y-S-I-Aib-L-E-K-Q-A-E-Aib-A-F-V-Q-W-L-I-K(1,3)-GGPSSGASLRHYYNWLTRQRY-NH2.C18DA-gGlu-gGlu-gGlu-gGlu-gGlu-gGlu-eLys(1,2)]”: the EC50 on hGIPR (setting [1]) worked out at 0.23 nM; at hGIPR (setting [2]), 1.37 nM; at hGLP1R (setting [3]) it was 0.15 nM; on hNPY2R (setting [4]) it was 13.7 nM; on hNPY2R (setting [5]), 42.2 nM.

For `CC[C@H](C)[C@H](NC(=O)[C@H](CO)NC(=O)[C@H](Cc1ccc(O)cc1)NC(=O)[C@H](CC(=O)O)NC(=O)[C@H](CO)NC(=O)[C@@H](NC(=O)[C@H](Cc1ccccc1)NC(=O)[C@@H](NC(=O)CNC(=O)[C@H](CCC(=O)O)NC(=O)C(C)(C)NC(=O)[C@@H](N)Cc1ccc(O)cc1)[C@@H](C)O)[C@@H](C)O)C(=O)NC(C)(C)C(=O)N[C@@H](CC(C)C)C(=O)N[C@@H](CCC(=O)O)C(=O)N[C@@H](CCCCN)C(=O)N[C@@H](CCC(N)=O)C(=O)N[C@@H](C)C(=O)N[C@@H](CCC(N)=O)C(=O)NC(C)(C)C(=O)N[C@@H](C)C(=O)N[C@@H](Cc1ccccc1)C(=O)N[C@H](C(=O)N[C@@H](CCC(=O)O)C(=O)N[C@@H](Cc1c[nH]c2ccccc12)C(=O)N[C@@H](CC(C)C)C(=O)N[C@@H](CC(C)C)C(=O)N[C@@H](CCCCNC(=O)[C@@H](N)CCCCNC(=O)CC[C@H](NC(=O)CC[C@H](NC(=O)CC[C@H](NC(=O)CC[C@H](NC(=O)CC[C@H](NC(=O)CC[C@H](NC(=O)CCCCCCCCCCCCCCCCCCC(=O)O)C(=O)O)C(=O)O)C(=O)O)C(=O)O)C(=O)O)C(=O)O)C(=O)NCC(=O)NCC(=O)N1CCC[C@H]1C(=O)N[C@@H](CO)C(=O)N[C@@H](CO)C(=O)NCC(=O)N[C@@H](C)C(=O)N[C@@H](CO)C(=O)N[C@@H](CC(C)C)C(=O)N[C@@H](CCCNC(=N)N)C(=O)N[C@@H](Cc1c[nH]cn1)C(=O)N[C@@H](Cc1ccc(O)cc1)C(=O)N[C@@H](Cc1ccc(O)cc1)C(=O)N[C@@H](CC(N)=O)C(=O)N[C@@H](Cc1c[nH]c2ccccc12)C(=O)N[C@@H](CC(C)C)C(=O)N[C@H](C(=O)N[C@@H](CCCNC(=N)N)C(=O)N[C@@H](CCC(N)=O)C(=O)N[C@@H](CCCNC(=N)N)C(=O)N[C@@H](Cc1ccc(O)cc1)C(N)=O)[C@@H](C)O)C(C)C` [Compound 109, Y-Aib-E-G-T-F-T-S-D-Y-S-I-Aib-L-E-K-Q-A-Q-Aib-A-F-V-E-W-L-L-K(1,3)-GGPSSGASLRHYYNWLTRQRY-NH2.C20DA-gGlu-gGlu-glu-gGlu-gGlu-Glu-eLys(1,2)], the EC50 at hGIPR (setting [1]) is 0.09 nM; at hGIPR (setting [2]), 0.64 nM; on hGLP1R (setting [3]), 0.28 nM; at hNPY2R (setting [4]) it was 10.8 nM.

As for “H-Y[Aib]EGTFTSDYSI[Aib]LEKQAQ[Aib]AFVQWLIK([AEEA-AEEA-γGlu-γGlu-γGlu-C18 diacid])GGPEEGASLRHYYNWLTRQRY-NH2 [Compound 144, Y-Aib-E-G-T-F-T-S-D-Y-S-I-Aib-L-E-K-Q-A-Q-Aib-A-F-V-Q-W-L-I-K(1,3)-GGPEEGASLRHYYNWLTRQRY-NH2.C18DA-gGlu-gGlu-gGlu-OEG-OEG(1,2)]”, the EC50 is 1.15 nM on hGIPR (setting [1]); 0.79 nM on hGIPR (setting [2]); 0.16 nM at hGLP1R (setting [3]); 15.8 nM at hNPY2R (setting [4]); 48.7 nM on hNPY2R (setting [5]).

Take “H-Y[Aib]EGTFTSDYSI[Aib]LEKQAQ[Aib]AFVEWLIK([εLys-γGlu-γGlu-γGlu-γGlu-γGlu-γGlu-C20 diacid])GGPSSGASLRHYLNL[Aib]TRQRY-NH2 [Compound 17, Y-Aib-E-G-T-F-T-S-D-Y-S-I-Aib-L-E-K-Q-A-Q-Aib-A-F-V-E-W-L-I-K(1,3)-G-G-P-S-S-G-A-S-L-R-H-Y-L-N-L-Aib-T-R-Q-R-Y-NH2.C20DA-gGlu-gGlu-gGlu-gGlu-gGlu-gGlu-eLys(1,2)]”: the EC50 on hGIPR (setting [1]) is 0.43 nM; at hGLP1R (setting [3]) it was 0.14 nM; at hNPY2R (setting [4]), above 100 nM.

For `CC[C@H](C)[C@H](NC(=O)[C@H](CC(C)C)NC(=O)[C@H](Cc1c[nH]c2ccccc12)NC(=O)[C@H](CCC(=O)O)NC(=O)[C@@H](NC(=O)[C@H](Cc1ccccc1)NC(=O)[C@H](C)NC(=O)C(C)(C)NC(=O)[C@H](CCC(N)=O)NC(=O)[C@H](C)NC(=O)[C@H](CCC(N)=O)NC(=O)[C@H](CCCCN)NC(=O)[C@H](CCC(=O)O)NC(=O)[C@H](CC(C)C)NC(=O)C(C)(C)NC(=O)[C@@H](NC(=O)[C@H](CO)NC(=O)[C@H](Cc1ccc(O)cc1)NC(=O)[C@H](CC(=O)O)NC(=O)[C@H](CO)NC(=O)[C@@H](NC(=O)[C@H](Cc1ccccc1)NC(=O)[C@@H](NC(=O)CNC(=O)[C@H](CCC(=O)O)NC(=O)C(C)(C)NC(=O)[C@@H](N)Cc1ccc(O)cc1)[C@@H](C)O)[C@@H](C)O)[C@@H](C)CC)C(C)C)C(=O)N[C@@H](CCCCNC(=O)[C@@H](N)CCCCNC(=O)CC[C@H](NC(=O)CC[C@H](NC(=O)CC[C@H](NC(=O)CC[C@H](NC(=O)CC[C@H](NC(=O)CC[C@H](NC(=O)CCCCCCCCCCCCCCCCCCC(=O)O)C(=O)O)C(=O)O)C(=O)O)C(=O)O)C(=O)O)C(=O)O)C(=O)NCC(=O)NCC(=O)N1CCC[C@H]1C(=O)N[C@@H](CO)C(=O)N[C@@H](CO)C(=O)NCC(=O)N[C@@H](C)C(=O)N[C@@H](CO)C(=O)N[C@H](CC(C)C)C(=O)N[C@@H](CCCNC(=N)N)C(=O)N[C@H](Cc1c[nH]cn1)C(=O)N[C@@H](Cc1ccc(O)cc1)C(=O)N[C@@H](Cc1ccc(O)cc1)C(=O)N[C@@H](CC(N)=O)C(=O)N[C@@H](Cc1c[nH]c2ccccc12)C(=O)N[C@@H](CC(C)C)C(=O)N[C@H](C(=O)N[C@H](CCCNC(=N)N)C(=O)N[C@@H](CCC(N)=O)C(=O)N[C@@H](CCCNC(=N)N)C(=O)N[C@H](Cc1ccc(O)cc1)C(N)=O)[C@@H](C)O` [Compound 5, Y-Aib-E-G-T-F-T-S-D-Y-S-I-Aib-L-E-K-Q-A-Q-Aib-A-F-V-E-W-L-I-K(1,3)-G-G-P-S-S-G-A-S-DLeu-R-DHis-Y-Y-N-W-L-T-DArg-Q-R-DTyr-NH2.C20DA-gGlu-gGlu-gGlu-gGlu-gGlu-gGlu-eLys(1,2)], the EC50 on hGIPR (setting [1]) was 0.17 nM; on hGIPR (setting [2]) it was 1.07 nM; on hGLP1R (setting [3]) it was 0.11 nM; at hNPY2R (setting [4]) it was above 99.9 nM; on hNPY2R (setting [5]) it was above 999 nM.

In the case of “H-Y[Aib]EGTFTSDYSI[Aib]LEKQAQ[Aib]AFVQWLIK([γGlu-γGlu-γGlu-γGlu-γGlu-C18 diacid])GGPESPASLRHYYNWLTRQRY-NH2 [Compound 12, Y-Aib-E-G-T-F-T-S-D-Y-S-I-Aib-L-E-K-Q-A-Q-Aib-A-F-V-Q-W-L-I-K(1,3)-GGPESPASLRHYYNWLTRQRY-NH2.C18DA-gGlu-gGlu-gGlu-gGlu-gGlu(1,2)]”, the EC50 is 0.14 nM at hGIPR (setting [1]); 0.11 nM on hGLP1R (setting [3]); 4.76 nM at hGLP1R (100% human plasma, read-out: hGLP1R 100% hP); 11.9 nM on hNPY2R (setting [4]); 45.8 nM at hNPY2R (setting [5]).

With “H-Y[Aib]EGTFTSDYSI[Aib]LEKQAQ[Aib]AFVQWLIK([εLys-γGlu-γGlu-γGlu-γGlu-γGlu-γGlu-C20 diacid])GGPSEGASLRHYYNWLTRQ[NMeR]Y-NH2 [Compound 125, Y-Aib-E-G-T-F-T-S-D-Y-S-I-Aib-L-E-K-Q-A-Q-Aib-A-F-V-Q-W-L-I-K(1,3)-G-G-P-S-E-G-A-S-L-R-H-Y-Y-N-W-L-T-R-Q-NMeR-Y-NH2.C20DA-gGlu-gGlu-gGlu-gGlu-gGlu-gGlu-eLys(1,2)]”, the EC50 on hGIPR (setting [1]) came to 0.28 nM; on hGIPR (setting [2]), 1.72 nM; at hGLP1R (setting [3]), 0.23 nM; at hNPY2R (setting [4]) it was 30.9 nM; on hNPY2R (setting [5]), 99.3 nM.

These data come from patent US20240247080A1, “GLP1/GIP/NPY2 RECEPTOR TRIPLE AGONISTS” (Boehringer Ingelheim International GmbH, priority 2022, published 2024).
